How the values were obtained:
Assay in all cases: Test H mixtures of compound 1 with diflufenzopyr
Type in all cases: in vivo
Conditions in all cases: foliage spray
[1] = tested on: barnyardgrass (ECHCG; Echinochloa crus-galli (L.) Beauv.)
Description: (§1) This test evaluated the effect of mixtures of compound 1 with diflufenzopyr on several plant species. Seeds of test plants consisting of large crabgrass (DIGSA, Digitaria sanguinalis (L.) Scop.), lambsquarters (CHEAL, Chenopodium album L.), redroot pigweed (AMARE, Amaranthus retroflexus L.), cocklebur (XANST, Xanthium strumarium L.), barnyardgrass (ECHCG; Echinochloa crus-galli (L.) Beauv.), corn (ZEAMD, Zea mays L. cv. ‘Pioneer 33G26’), scarlet (red) morningglory (IPOCO, Ipomoea coccinea L.), giant foxtail (SETFA, Setaria faberi Herrm.) and velvetleaf (ABUTH, Abutilon theophrasti Medik.) were planted in pots containing Redi-Earth® planting medium (Scotts Company, 14111 Scottslawn Road, Marysville, Ohio 43041) comprising spaghnum peat moss, vermiculite, wetting agent and starter nutrients. Seeds of small-seeded species were planted about 1 cm deep; larger seeds were planted about 2.5 cm deep. Plants were grown in a greenhouse using supplemental lighting to maintain a photoperiod of about 14 hours; daytime and nighttime temperatures were about 25-30° C. and 22-25° C., respectively. Balanced fertilizer was applied through the watering system. The plants were grown for 7 to 11 days so that at time of treatment the plants ranged in height from 2 to 18 cm (1- to 4-leaf stage). Treatments consisted of Compound 1 and diflufenzopyr alone and in combination, suspended or dissolved in an aqueous solvent comprising glycerin and Tween nonionic surfactant and applied as a foliage spray using a volume of 541 L/ha. Each treatment was replicated four times. […] Treated plants and controls were maintained in the greenhouse and watered as needed with care to not wet the foliage for the first 24 hours after treatment. The effects on the plants approximately 3 weeks after treatment were visually compared to untreated controls. Plant response ratings were calculated as the means of the four replicates, based on a scale of 0 to 100 where 0 is no effect and 100 is complete control. Colby's Equation was used to determine the herbicidal effects expected from the mixtures. Colby's Equation (Colby, S. R. “Calculating Synergistic and Antagonistic Responses of Herbicide Combinations,” Weeds, 15(1), pp 20-22 (1967)) calculates the expected additive effect of herbicidal mixtures, and for two active ingredients is of the form: Pa+b=Pa+Pb−(PaPb/100) wherein Pa+b is the percentage effect of the mixture expected from additive contribution of the individual components, • Pa is the observed percentage effect of the first active ingredient at the same use rate as in the mixture, and • Pb is the observed percentage effect of the second active ingredient at the same use rate as in the mixture.

[2] = tested on: cocklebur (XANST, Xanthium strumarium L.)
Description: as §1

[3] = tested on: corn (ZEAMD, Zea mays L. cv. ‘Pioneer 33G26’)
Description: as §1

[4] = tested on: giant foxtail (SETFA, Setaria faberi Herrm.)
Description: as §1

[5] = tested on: lambsquarters (CHEAL, Chenopodium album L.)
Description: as §1

[6] = tested on: large crabgrass (DIGSA, Digitaria sanguinalis (L.) Scop.)
Description: as §1

[7] = tested on: redroot pigweed (AMARE, Amaranthus retroflexus L.)
Description: as §1

[8] = tested on: scarlet (red) morningglory (IPOCO, Ipomoea coccinea L.)
Description: as §1

[9] = tested on: velvetleaf (ABUTH, Abutilon theophrasti Medik.)
Description: as §1

Structure (SMILES): C/C(=N\NC(=O)Nc1cc(F)cc(F)c1)c1ncccc1C(=O)O [Diflufenzopyr, diflufenzopyr, reference compound]
- Obsd. observed effect (0 to 100 scale) ([1]; Diflufenzopyr 12 g a.i./ha): 5
- Obsd. observed effect (0 to 100 scale) ([1]; Diflufenzopyr 25 g a.i./ha): 10
- Obsd. observed effect (0 to 100 scale) ([1]; Diflufenzopyr 50 g a.i./ha): 23
- Obsd. observed effect (0 to 100 scale) ([2]; Diflufenzopyr 12 g a.i./ha): 43
- Obsd. observed effect (0 to 100 scale) ([2]; Diflufenzopyr 25 g a.i./ha): 60
- Obsd. observed effect (0 to 100 scale) ([2]; Diflufenzopyr 50 g a.i./ha): 68
- Obsd. observed effect (0 to 100 scale) ([3]; Diflufenzopyr 12 g a.i./ha): 0
- Obsd. observed effect (0 to 100 scale) ([3]; Diflufenzopyr 25 g a.i./ha): 0
- Obsd. observed effect (0 to 100 scale) ([3]; Diflufenzopyr 50 g a.i./ha): 0
- Obsd. observed effect (0 to 100 scale) ([4]; Diflufenzopyr 12 g a.i./ha): 41
- Obsd. observed effect (0 to 100 scale) ([4]; Diflufenzopyr 25 g a.i./ha): 58
- Obsd. observed effect (0 to 100 scale) ([4]; Diflufenzopyr 50 g a.i./ha): 59
- Obsd. observed effect (0 to 100 scale) ([5]; Diflufenzopyr 12 g a.i./ha): 61
- Obsd. observed effect (0 to 100 scale) ([5]; Diflufenzopyr 25 g a.i./ha): 76
- Obsd. observed effect (0 to 100 scale) ([5]; Diflufenzopyr 50 g a.i./ha): 80
- Obsd. observed effect (0 to 100 scale) ([6]; Diflufenzopyr 12 g a.i./ha): 0
- Obsd. observed effect (0 to 100 scale) ([6]; Diflufenzopyr 25 g a.i./ha): 1
- Obsd. observed effect (0 to 100 scale) ([6]; Diflufenzopyr 50 g a.i./ha): 8
- Obsd. observed effect (0 to 100 scale) ([7]; Diflufenzopyr 12 g a.i./ha): 73
- Obsd. observed effect (0 to 100 scale) ([7]; Diflufenzopyr 25 g a.i./ha): 91
- Obsd. observed effect (0 to 100 scale) ([7]; Diflufenzopyr 50 g a.i./ha): 95
- Obsd. observed effect (0 to 100 scale) ([8]; Diflufenzopyr 12 g a.i./ha): 77
- Obsd. observed effect (0 to 100 scale) ([8]; Diflufenzopyr 25 g a.i./ha): 83
- Obsd. observed effect (0 to 100 scale) ([8]; Diflufenzopyr 50 g a.i./ha): 82
- Obsd. observed effect (0 to 100 scale) ([9]; Diflufenzopyr 12 g a.i./ha): 50
- Obsd. observed effect (0 to 100 scale) ([9]; Diflufenzopyr 25 g a.i./ha): 78
- Obsd. observed effect (0 to 100 scale) ([9]; Diflufenzopyr 50 g a.i./ha): 68

From US8802597B2, “Herbicidal pyrimidines” (E I du Pont de Nemours and Company, priority 2003, dated 2014)
